Laboratory results: the supplement of paper PMC11061612

Tests used:
Assay in all cases: combination Emax (second highest fraction inhibited in the dose matrix, 72 h); higher = more inhibition; extreme values may be limits of the assay
LN-405 (Glioblastoma) = test system: LN-405 (Glioblastoma)
How it was run: (§1)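 Cell lines grown in DMEM/F12 or RPMI with 10% FBS were plated in 1536-well plates and held 24 hours at 37°C, 5% CO2 before 72 hours of exposure to two-drug dose matrices, with DMSO typically at 0.2%. CellTiter-Glo 2.0 luminescence gave viability, which was converted to inhibition. Vehicle wells were set to 0 and blank wells to 1. Combination Emax is the second-highest inhibition in the matrix, and Bliss excess is the observed combination effect minus the expected EA + EB − EA·EB, where EA and EB are the single-agent effects.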

[1] = test system: A3-KAW (B-Cell Non-Hodgkin's Lymphoma)
How it was run: as §1

PA-1 (Ovarian Carcinoma) = test system: PA-1 (Ovarian Carcinoma)
How it was run: as §1

[2] = test system: PANC-10-05 (Pancreatic Carcinoma)
How it was run: as §1

[3] = test system: TT (Thyroid Gland Carcinoma)
How it was run: as §1

[4] = test system: NCI-H1666 (Lung Adenocarcinoma)
How it was run: as §1

Row | Compound | combination Emax (LN-405 (Glioblastoma)) | combination Emax [1] | combination Emax (PA-1 (Ovarian Carcinoma)) | combination Emax [2] | combination Emax [3] | combination Emax [4]
1 | CN(C)CCCOc1ccc(-c2ccc3ncc4c(c3c2)n(C2CCOCC2)c(=O)n4C)cn1 [AZD0156] + C=CCn1c(=O)c2cnc(Nc3ccc(N4CCN(C)CC4)cc3)nc2n1-c1cccc(C(C)(C)O)n1 [AZD1775] (first compound max 1 µM, partner max 1 µM) | 0.134 | 0.95 | 0.789 | 0.361 | 0.271 | 0.314
2 | CN(C)CCCOc1ccc(-c2ccc3ncc4c(c3c2)n(C2CCOCC2)c(=O)n4C)cn1 [AZD0156] + CCN(CCO)CCCOc1ccc2c(Nc3cc(CC(=O)Nc4cccc(F)c4)[nH]n3)ncnc2c1 [AZD2811] (first compound max 1 µM, 7x7, partner max 1 µM) | 0.0969 | 0.572 | 0.407 | 0.218 | 0.359 | 0.211
3 | CN(C)CCCOc1ccc(-c2ccc3ncc4c(c3c2)n(C2CCOCC2)c(=O)n4C)cn1 [AZD0156] + C[C@@H]1COCCN1C2=NC(=NC(=C2)C3(CC3)[S@](=N)(=O)C)C4=C5C=CNC5=NC=C4 [AZD6738] (first compound max 1 µM, 7x7, partner max 10 µM) | 0.376 | 0.995 | 0.85 | 0.41 | 0.429 | 0.331
4 | C=CCn1c(=O)c2cnc(Nc3ccc(N4CCN(C)CC4)cc3)nc2n1-c1cccc(C(C)(C)O)n1 [AZD1775] + C[C@@H]1COCCN1C2=NC(=NC(=C2)C3(CC3)[S@](=N)(=O)C)C4=C5C=CNC5=NC=C4 [AZD6738] (first compound max 1 µM, partner max 10 µM) | 0.464 | 0.992 | 0.883 | 0.513 | 0.441 | 0.49
5 | C=CCn1c(=O)c2cnc(Nc3ccc(N4CCN(C)CC4)cc3)nc2n1-c1cccc(C(C)(C)O)n1 [AZD1775] + O=C(c1cc(Cc2n[nH]c(=O)c3ccccc23)ccc1F)N1CCN(C(=O)C2CC2)CC1 [Olaparib] (first compound max 1 µM, partner max 10 µM) | 0.176 | 0.944 | 0.756 | 0.465 | 0.273 | 0.335
6 | CCN(CCO)CCCOc1ccc2c(Nc3cc(CC(=O)Nc4cccc(F)c4)[nH]n3)ncnc2c1 [AZD2811] + C=CCn1c(=O)c2cnc(Nc3ccc(N4CCN(C)CC4)cc3)nc2n1-c1cccc(C(C)(C)O)n1 [AZD1775] (first compound max 1 µM, partner max 1 µM) | 0.199 | 0.902 | 0.767 | 0.354 | 0.365 | 0.327
7 | CCN(CCO)CCCOc1ccc2c(Nc3cc(CC(=O)Nc4cccc(F)c4)[nH]n3)ncnc2c1 [AZD2811] + C[C@@H]1COCCN1C2=NC(=NC(=C2)C3(CC3)[S@](=N)(=O)C)C4=C5C=CNC5=NC=C4 [AZD6738] (first compound max 1 µM, 7x7, partner max 10 µM) | 0.46 | 0.968 | 0.795 | 0.389 | 0.475 | 0.28
8 | CCN(CCO)CCCOc1ccc2c(Nc3cc(CC(=O)Nc4cccc(F)c4)[nH]n3)ncnc2c1 [AZD2811] + O=C(c1cc(Cc2n[nH]c(=O)c3ccccc23)ccc1F)N1CCN(C(=O)C2CC2)CC1 [Olaparib] (first compound max 1 µM, 7x7, partner max 10 µM) | 0.192 | 0.688 | 0.545 | 0.181 | 0.458 | 0.284
9 | CN(CCO)CC[C@H](CSc1ccccc1)Nc1ccc(S(=O)(=O)NC(=O)c2ccc(N3CCC([C@@H](O)c4ccccc4-c4ccc(Cl)cc4)CC3)cc2)cc1S(=O)(=O)C(F)(F)F [AZD4320] + C1CN(CCC1(C(=O)N[C@@H](CCO)C2=CC=C(C=C2)Cl)N)C3=NC=NC4=C3C=CN4 [Capivasertib] (first compound max 1 µM, 7x7, partner max 3 µM) | 0.45 | 0.367 | 0.743 | 0.265 | 0.408 | 0.201
10 | CN(CCO)CC[C@H](CSc1ccccc1)Nc1ccc(S(=O)(=O)NC(=O)c2ccc(N3CCC([C@@H](O)c4ccccc4-c4ccc(Cl)cc4)CC3)cc2)cc1S(=O)(=O)C(F)(F)F [AZD4320] + C=CCn1c(=O)c2cnc(Nc3ccc(N4CCN(C)CC4)cc3)nc2n1-c1cccc(C(C)(C)O)n1 [AZD1775] (first compound max 1 µM, partner max 1 µM) | 0.379 | 0.892 | 0.967 | 0.481 | 0.484 | 0.302
11 | CN(CCO)CC[C@H](CSc1ccccc1)Nc1ccc(S(=O)(=O)NC(=O)c2ccc(N3CCC([C@@H](O)c4ccccc4-c4ccc(Cl)cc4)CC3)cc2)cc1S(=O)(=O)C(F)(F)F [AZD4320] + CCN(CCO)CCCOc1ccc2c(Nc3cc(CC(=O)Nc4cccc(F)c4)[nH]n3)ncnc2c1 [AZD2811] (first compound max 1 µM, 7x7, partner max 1 µM) | 0.363 | 0.371 | 0.773 | 0.18 | 0.615 | 0.154
12 | CN(CCO)CC[C@H](CSc1ccccc1)Nc1ccc(S(=O)(=O)NC(=O)c2ccc(N3CCC([C@@H](O)c4ccccc4-c4ccc(Cl)cc4)CC3)cc2)cc1S(=O)(=O)C(F)(F)F [AZD4320] + CN(C)CCCOc1ccc(-c2ccc3ncc4c(c3c2)n(C2CCOCC2)c(=O)n4C)cn1 [AZD0156] (first compound max 1 µM, 7x7, partner max 1 µM) | 0.275 | 0.228 | 0.497 | 0.373 | 0.269 | 0.141
13 | CN(CCO)CC[C@H](CSc1ccccc1)Nc1ccc(S(=O)(=O)NC(=O)c2ccc(N3CCC([C@@H](O)c4ccccc4-c4ccc(Cl)cc4)CC3)cc2)cc1S(=O)(=O)C(F)(F)F [AZD4320] + C[C@@H]1COCCN1C2=NC(=NC(=C2)C3(CC3)[S@](=N)(=O)C)C4=C5C=CNC5=NC=C4 [AZD6738] (first compound max 1 µM, 7x7, partner max 10 µM) | 0.63 | 0.986 | 0.886 | 0.504 | 0.726 | 0.418
14 | CN(CCO)CC[C@H](CSc1ccccc1)Nc1ccc(S(=O)(=O)NC(=O)c2ccc(N3CCC([C@@H](O)c4ccccc4-c4ccc(Cl)cc4)CC3)cc2)cc1S(=O)(=O)C(F)(F)F [AZD4320] + C[C@@H](Nc1cc(F)cc(F)c1)c1cc(C(=O)N(C)C)cc2c(=O)cc(N3CCOCC3)oc12 [AZD8186] (first compound max 1 µM, 7x7, partner max 3 µM) | 0.615 | 0.761 | 0.927 | 0.383 | 0.803 | 0.42
15 | CN(CCO)CC[C@H](CSc1ccccc1)Nc1ccc(S(=O)(=O)NC(=O)c2ccc(N3CCC([C@@H](O)c4ccccc4-c4ccc(Cl)cc4)CC3)cc2)cc1S(=O)(=O)C(F)(F)F [AZD4320] + Cc1cc2ncnn2cc1Nc1ncc2c(n1)n(C1CCOCC1)c(=O)n2C [AZD7648] (first compound max 1 µM, 7x7, partner max 10 µM) | 0.36 | 0.344 | 0.61 | 0.311 | 0.209 | 0.197
16 | CN(CCO)CC[C@H](CSc1ccccc1)Nc1ccc(S(=O)(=O)NC(=O)c2ccc(N3CCC([C@@H](O)c4ccccc4-c4ccc(Cl)cc4)CC3)cc2)cc1S(=O)(=O)C(F)(F)F [AZD4320] + Cn1cnc2c(F)c(Nc3ccc(Br)cc3Cl)c(C(=O)NOCCO)cc21 [Selumetinib] (first compound max 1 µM, 7x7, partner max 3 µM) | 0.646 | 0.861 | 0.8 | 0.479 | 0.781 | 0.697
17 | COc1nnc2ccc(N3CCC(c4ccc(OCCN5CCN(C)C(=O)[C@H]5C)cc4)CC3)nn12 [AZD5153] + C=CCn1c(=O)c2cnc(Nc3ccc(N4CCN(C)CC4)cc3)nc2n1-c1cccc(C(C)(C)O)n1 [AZD1775] (first compound max 1 µM, partner max 1 µM) | 0.535 | 1 | 0.973 | 0.597 | 0.563 | 0.413
18 | COc1nnc2ccc(N3CCC(c4ccc(OCCN5CCN(C)C(=O)[C@H]5C)cc4)CC3)nn12 [AZD5153] + CC1(C)CCC(CN2CCN(c3ccc(C(=O)NS(=O)(=O)c4ccc(NCC5CCOCC5)c([N+](=O)[O-])c4)c(Oc4cnc5[nH]ccc5c4)c3)CC2)=C(c2ccc(Cl)cc2)C1 [Venetoclax] (first compound max 1 µM, 7x7, partner max 1 µM) | 0.441 | 1 | 0.862 | 0.474 | 0.596 | 0.439
19 | COc1nnc2ccc(N3CCC(c4ccc(OCCN5CCN(C)C(=O)[C@H]5C)cc4)CC3)nn12 [AZD5153] + CN(CC[C@H](CSC1=CC=CC=C1)NC2=C(C=C(C=C2)S(=O)(=O)NC(=O)C3=CC=C(C=C3)N4CCC(CC4)[C@H](C5=CC=CC=C5C6=CC=C(C=C6)Cl)O)S(=O)(=O)C(F)(F)F)CCO [AZD4320] (first compound max 1 µM, 7x7, partner max 1 µM) | 0.723 | 1 | 0.9 | – | – | –
20 | CC(=O)c1c(C)c2cnc(Nc3ccc(N4CCNCC4)cn3)nc2n(C2CCCC2)c1=O [Palbociclib] + CN(CC[C@H](CSC1=CC=CC=C1)NC2=C(C=C(C=C2)S(=O)(=O)NC(=O)C3=CC=C(C=C3)N4CCC(CC4)[C@H](C5=CC=CC=C5C6=CC=C(C=C6)Cl)O)S(=O)(=O)C(F)(F)F)CCO [AZD4320] (first compound max 10 µM, 7x7, partner max 1 µM) | 0.69 | 0.867 | 0.872 | – | – | –
21 | CCc1c2c(nc3ccc(O)cc13)-c1cc3c(c(=O)n1C2)COC(=O)[C@]3(O)CC [SN-38] + O=C(c1cc(Cc2n[nH]c(=O)c3ccccc23)ccc1F)N1CCN(C(=O)C2CC2)CC1 [Olaparib] (first compound max 0.3 µM, 7x7, partner max 10 µM) | 0.413 | – | 0.848 | 0.76 | 0.892 | 0.532
22 | C[C@@H](c1ccc2nccn2c1)n1nnc2ncc(-c3cnn(C)c3)nc21 [Savolitinib] + CN(CC[C@H](CSC1=CC=CC=C1)NC2=C(C=C(C=C2)S(=O)(=O)NC(=O)C3=CC=C(C=C3)N4CCC(CC4)[C@H](C5=CC=CC=C5C6=CC=C(C=C6)Cl)O)S(=O)(=O)C(F)(F)F)CCO [AZD4320] (first compound max 1 µM, 7x7, partner max 1 µM) | 0.455 | 0.128 | 0.465 | – | – | –
